Results published in patent US20120083522A1, “MODULATION OF INFLAMMATORY RESPONSES BY FACTOR XI” (Isis Pharmaceuitcals, inc., priority 2009, published 2012).
In the oligonucleotide strings, read from the 5' end, every base follows the letter of its sugar. An asterisk marks phosphorothioate; unmarked linkages are phosphodiester. Other units and linkages are bracketed, terminal groups are in braces. A string of capitals states the bases alone. e = 2'-O-(2-methoxyethyl) (MOE); [5mC] = 5-methylcytosine; d = 2'-deoxy (DNA)

Experiments:
[1] = tested on: IL-1β, IL-6, IFN-γ, TNF-α, IL-8, MIP-1α, MCP-1, MIP-10, RANTES; experiment: Cynomolgus monkeys: cytokine and chemokine assays (Example 30); format: in vivo
Procedure, shortened: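 Sampling at day −14 and at necropsy on day 55 gave blood for cytokine and chemokine levels, read with primate antibodies for IL-1β, IL-6, IFN-γ and TNF-α and human cross-reacting antibodies for the rest. Dosing: subcutaneous 25 mg/kg, 3×/week week 1, 2×/week weeks 2–8; PBS control; 2 males + 2 females per group.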

[2] = Cynomolgus monkeys: hematology assays (Example 29); format: in vivo
Procedure, shortened: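 Groups of 2 male and 3 female monkeys got subcutaneous oligonucleotide or PBS, escalating 5, 10, then 25 mg/kg two or three times weekly over 12 weeks; one group received a chronic 5 then 10 mg/kg regimen. Blood was sampled 14 and 5 days pre-dose, then weekly, for hematology; necropsy on day 85.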

[3] = tested on: P-selectin; experiment: Colitis Study C: serum P-selectin; format: in vivo, mice
Method: The effect of antisense inhibition of Factor XI on serum P-selectin levels was evaluated in this study. DSS administration led to increase in P-selectin levels which was reduced by treatment with ISIS 404071.

[4] = tested on: Factor XI mRNA; experiment: Colitis Study F: Factor XI mRNA in liver and colon; format: in vivo, Swiss Webb mice; conditions: DSS-treated mice, 50 mg/kg, percent of the PBS treated control
Method: In a first group of 8 Swiss Webb mice, 50 mg/kg of ISIS 404071 was injected subcutaneously twice a week for 3 weeks. Two control groups of 8 mice each were injected with PBS twice a week for 3 weeks. After the oligonucleotide treatment, 4% DSS in water was administered ad libitum for 7 days to the experimental group and one PBS control group. Mice were sacrificed at the end of the study on day 7 after DSS was administered.
The effect of antisense inhibition in the liver and colon levels of Factor XI mRNA after treatment by ISIS 404071 is presented in Table 48 (as a percent of the PBS treated control).

[5] = tested on: DSS-induced colitis model; experiment: Colitis Study A: DSS-induced colitis, body weight and colon length (Example 12); format: in vivo, Swiss Webb mice; conditions: for colon length (in words): FIG. 7C
Method: The effect of antisense oligonucleotide inhibition of Factor XI and its role in ameliorating colitis was evaluated in a dextran sulfate sodium (DSS)-induced colitis model. Administration of DSS to animals is a well known method to induce […] and has been previously described by Okayasu et al. (Gastroenterology, 1990, 98:694-702), Cooper et al. (Lab Invest, 1993, 69:238-249) and Dieleman et al. (Clin Exp Immunol, 1998, 114:385-391).
In groups of 8 Swiss Webb mice, 20 mg/kg of ISIS 404071 or ISIS 403102 were injected subcutaneously twice a week for 3 weeks. Two control groups of 8 mice each were injected with PBS twice a week for 3 weeks. After the oligonucleotide treatments, 4% DSS in water was administered ad libitum for 6 days to the experimental groups and one PBS control group.
Mice in all groups were weighed at day 0. Mice were sacrificed at the end of the study on day 7 after DSS was administered and their body weights and colon lengths were measured. Results are presented in Table 24 (expressed as a percentage of the PBS control) and FIG. 7.
Colon length was assessed in the DSS-induced colitis mice.

[6] = day −14 (before start of treatment)
[7] = DSS-induced colitis, day 7, 20 mg/kg s.c. twice a week for 3 weeks, expressed as a percentage of the PBS control

## ISIS 416850: gapmer of Table 8 (antisense eT*eG*e[5mC]*eA*e[5mC]*dA*dG*dT*dT*dT*d[5mC]*dT*dG*dG*d[5mC]*eA*eG*eG*e[5mC]*e[5mC])
[1]; 25 mg/kg s.c., day 55
  IL-1β level: 106 pg/mL
  MIP-1β level: 50 pg/mL
[1]; [6]
  IL-1β level: 215 pg/mL
  MIP-1β level: 31 pg/mL
[2]; day 8
  platelet count: 548000 µL⁻¹
[2]; day 8, chronic dose regimen (*)
  platelet count: 401000 µL⁻¹
[2]; day 15
  platelet count: 559000 µL⁻¹
[2]; day 15, chronic dose regimen (*)
  platelet count: 396000 µL⁻¹
[2]; day 22
  platelet count: 466000 µL⁻¹
[2]; day 22, chronic dose regimen (*)
  platelet count: 347000 µL⁻¹
[2]; day 29
  platelet count: 475000 µL⁻¹
[2]; day 29, chronic dose regimen (*)
  platelet count: 370000 µL⁻¹
[2]; day 36
  platelet count: 505000 µL⁻¹
[2]; day 36, chronic dose regimen (*)
  platelet count: 379000 µL⁻¹
[2]; day 43
  platelet count: 490000 µL⁻¹
[2]; day 43, chronic dose regimen (*)
  platelet count: 391000 µL⁻¹
[2]; day 50
  platelet count: 487000 µL⁻¹
[2]; day 50, chronic dose regimen (*)
  platelet count: 351000 µL⁻¹
[2]; day 57
  Monocytes: n.d. 3.2%
  platelet count: 528000 µL⁻¹
[2]; day 64
  Monocytes: n.d. 3.5%
  platelet count: 496000 µL⁻¹
[2]; day 71
  Monocytes: n.d. 4.7%
  platelet count: 465000 µL⁻¹
[2]; day 78
  Monocytes: n.d. 4.5%
  platelet count: 449000 µL⁻¹
[2]; day 85
  Monocytes: n.d. 3.5%
  platelet count: 458000 µL⁻¹
[2]; day −5
  platelet count: 573000 µL⁻¹
[2]; day −5, chronic dose regimen (*)
  platelet count: 434000 µL⁻¹
[2]; day −14
  platelet count: 528000 µL⁻¹
[2]; day −14, chronic dose regimen (*)
  platelet count: 387000 µL⁻¹

## TGGTAATCCACTTTCAGAGG (eT*eG*eG*eT*eA*dA*dT*d[5mC]*d[5mC]*dA*d[5mC]*dT*dT*dT*d[5mC]*eA*eG*eA*eG*eG) [ISIS 404071, 5-10-5 MOE gapmer targeting murine Factor XI, target start site 869]
[3]
  P-selectin levels (in words): reduced
[3]; DSS-induced colitis mice
  P-selectin: 83 ng/mL
[4]
  Factor XI mRNA levels in the Colon: 148 % of normal
  Factor XI mRNA levels in the Liver: 24 % of normal
[5]; Colitis Study A, FIG. 7A/7B
  body weight (in words): did not have any significant change in body weight
[5]; Colitis Study A, listed as Factor XI ASO
  colon length (in words): had no significant change in colon length
[5]; Colitis Study A, listed as Factor XI oligonucleotide
  colon length (in words): decreased the amount of colon shortening
[5]; [7]
  Body weight change: −2%
  Colon length change: −13%
